Test results: US5126341A, “Anti-inflammatory 1,8-naphthyridin-2-one derivatives” (Kyowa Hakko Kogyo Co., Ltd., priority 1990, dated 1992)
Read-outs that look alike come from different tables or passages of the source.

Experiments:
[1] = system: carrageenin-induced paw edema; assay: Effect on carrageenin-induced paw edema; assay type: in vivo, male Wistar rats; details: po; rat, 100 mg/kg p.o., 1 hour before 1% carrageenin; paw volume 3 hours after injection; read-out: Suppression rate for paw swelling, (a) carrageenin-induced edema
Protocol: a) Effect on carrageenin-induced paw edema
Male Wistar rats weighing 150 to 160 g (n=3-5) were used in the experiment. After the right hind paw volume was measured with the plethysmograph (TK-101; Unicom Co., Ltd.), the test compound (100 mg/kg) was orally administered. After one hour, 0.1 ml of 1 % carrageenin (λ-carrageenin; PICNIN-A®, Zushi Kagaku Co., Ltd.) was subcutaneously injected into the right hind paw footpad. Three hours after the injection of carrageenin, the right hind paw volume was measured and the swelling rate was determined by the following equation 1. [formula]
Vt: the right hind paw volume measured 3 hours after the injection of carrageenin
Vo: the right hind paw volume measured prior to the injection of carrageenin
The suppression rate was calculated by the following equation 2. [formula]
Swt: the swelling rate of the group administered with the test compound
Swc: the swelling rate of the control group administered with no test compound

[2] = system: arachidonic acid-induced paw edema; assay: Arachidonic acid-induced paw edema; assay type: in vivo, male Wistar rats; details: rat, 100 mg/kg p.o., 1 hour before 0.5% arachidonic acid; paw volume one hour after injection
Protocol: c) Arachidonic acid-induced paw edema
(§1) The experiment was carried out in the same manner as in the carrageenin-induced paw edema test except that 0.5% arachidonic acid was used in place of 1% carrageenin and the right hind paw volume was measured one hour after the injection of the edema-inducing substance instead of 3 hours. The swelling rate and the suppression rate were calculated by equation 1 and equation 2, respectively.

[3] = system: Type III allergic reaction-induced pleurisy; assay: Effect on Type III allergic reaction-induced pleurisy; assay type: in vivo, male Wistar rats; details: po, 4.5 h, rat, 100 mg/kg p.o., four and a half hours after induction of pleurisy
Protocol: d) Effect on Type III allergic reaction-induced pleurisy
IgG was purified from rabbit anti-OA serum prepared in advance by the method of Koda et al. [Folia Pharmacol., Japon 66, 237, (1970)] in the following manner.
A saturated solution of ammonium sulfate (half volume of the serum) was added to the anti-OA serum, and the mixture was left for one hour at 4° C. The precipitate was taken by centrifugation (3,000 rpm, 30 min, 4° C.) and dissolved in phosphate buffered saline of Dulbecco. Then, ammonium sulfate fractionation was carried out three times in the same manner as above, whereby a purified IgG fraction was obtained.
Male Wistar rats weighing 225-250 g were pre-bred for several days and fasted overnight prior to the experiment The test compound (100 mg/kg) was orally administered to the animals, and after 30 minutes, IgG of rabbit anti-OA (0.2 ml, 5 mg protein/ml) was injected into the pleural cavity of the animals under anesthesia with ether. Thirty minutes after the injection of IgG, OA (albumin egg grade III; Sigma Chemical Co.) was intravenously injected into the animals as an inducer of pleurisy. After two hours, Evans Blue (25 mg/kg) was intravenously injected, and four and a half hours after the induction of pleurisy, the animals were killed by bleeding.
Then, an exudate in the pleural cavity was obtained, and the volume of the exudate was measured. The pleural cavity was rinsed with 5 ml of physiological saline and the rinsings were added to the exudate. The number of infiltrated cells in the mixture was counted and the volume of the dye in the mixture was determined by the absorption at 625 nm [Agent Actions., 25, 326 (1988)]. The suppression rates for the volume of the exudate, the number of infiltrated cells and the volume of the dye in the pleural cavity were calculated by the following equation 3. [formula]
S.V: the value obtained with the group administered with the test compound and in which pleurisy is induced
N.V: the value obtained with the group in which pleurisy is not induced
P.V: the value obtained with the group administered with no test compound and in which pleurisy is induced

[4] = system: zymosan-induced paw edema; assay: Effect on zymosan-induced paw edema; assay type: in vivo, male Wistar rats; details: rat, 100 mg/kg p.o., 1 hour before 1% zymosan; paw volume 4 hours after injection
Protocol: b) Effect on zymosan-induced paw edema
as §1, with “1% zymosan (Zymosan A®; Sigma Chemical Co.)” for “0.5% arachidonic acid”, “4 hours” for “one hour”

male dd-mice = details: mouse, in vivo, 10080 min; for Acute toxicity (MLD, Minimum Lethal Dose) i.p.: ip; for Acute toxicity (MLD, Minimum Lethal Dose) p.o.: po
Protocol: The test compounds were orally or intraperitoneally administered to male dd-mice weighing 20 to 25 g. MLD (Minimum Lethal Dose) was determined by observing the mortality for seven days after the administration.

[5] = Evans Blue 25 mg/kg i.v., absorption at 625 nm, read-out: Suppression rate, volume of dye in the exudate
[6] = read-out: Suppression rate, number of infiltrated cells in the exudate
[7] = read-out: Suppression rate, volume of exudate

| Structure (SMILES) | inhibition in vivo at 100 mg/kg [1] [%] | Suppression rate for paw swelling, (c) arachidonic acid-induced edema [2] [%] | inhibition in vivo at 100 mg/kg [3, 5] [%] | inhibition in vivo at 100 mg/kg [3, 6] [%] | inhibition in vivo at 100 mg/kg [3, 7] [%] | Suppression rate for paw swelling, (b) zymosan-induced edema [4] [%] | Acute toxicity (MLD, Minimum Lethal Dose) i.p. (male dd-mice) [mg/kg] | Acute toxicity (MLD, Minimum Lethal Dose) p.o. (male dd-mice) [mg/kg] |
| --- | --- | --- | --- | --- | --- | --- | --- | --- |
| O=C(Nc1cccnc1)c1c(O)c2cccnc2n(-c2ccccc2)c1=O [Compound 4, 4-Hydroxy-2-oxo-1-phenyl-N-(3-pyridyl)-1H-1,8-naphthyridine-3-carboxamide] | 40 | 34.9 | 54.4 | 30.5 | 75.3 | 37.8 | > 100 | > 300 |
| O=C(Nc1ccncc1)c1c(O)c2cccnc2n(-c2ccccc2)c1=O [Compound 5, 4-Hydroxy-2-oxo-1-phenyl-N-(4-pyridyl)-1H-1,8-naphthyridine-3-carboxamide] | 38.5 | 48.0 | 66.5 | 58.6 | 100 | 38.4 | > 100 | 300 |
